Measurements reported in US7338932B2, “Methods of modulating functions of polypeptide GalNAc-transferases and of screening test substances to find agents herefor, pharmaceutical compositions comprising such agents and the use of such agents for preparing medicaments” (Glycozym APS, priority 2000, dated 2008).
Entries after “also recorded” stand apart in the source; their conditions may differ.

Key:
[1] = test system: CHOldlD/MUC1F-clone2 cells; assay: MUC1 expression in cell lysates, immunoprecipitation and SDS-PAGE western blot; assay type: cell-based, Chinese Hamster; conditions: 2 mM
Protocol: We next analysed the expression of MUC1 produced by CHOldlD/MUC1F-clone2 cells by SDS-PAGE western analysis. […] Cells were further treated with 2 mM GalNAcα-benzyl, GlcNAcα-benzyl or no inhibitor. Cells were washed and lysed at 24 or 48 hours and the lysates subjected to immunoprecipitation with monoclonal antibody HMFG2, which broadly recognize MUC1 glycoforms. Immunoprecipitates were analysed by SDS-PAGE and western blot using HMFG2 antibody to detect MUC1 expression. […] In striking contrast, treatment with GalNAcα-benzyl had significant effect after 48 hours. […] This indicates some heterogeneity in glycosylation.
As shown in Examples 8 and 9, polypeptide GalNAc-transferases contain lectin domains with binding properties for GalNAc-peptides including GalNAc-MUC1 peptides. […] GalNAcβ-benzyl, the β-anomeric configuration of GalNAc-benzyl (there is a β linkage between the N-acetylgalactosamine and the benzyl ring), was custom synthesized by Alberta Research Council (Canada), and its structure was confirmed by mass spectrometry and ^1H-NMR. […] Cells were then treated with 2 mM GalNAcα-benzyl, GalNAcβ-benzyl, or GlcNAcα-benzyl as control (GlcNAcα-benzyl was shown in Example 10 to have no effect). Cells were washed and lysed as described above after 36 hours and the lysates subjected to immunoprecipitation with anti-MUC1 monoclonal antibodies HMFG2 or 5E5. […] FIG. 17 illustrates the same experiments as in FIG. 16 except that the detection antibody is 5E5 and only Tn and STn MUC1 glycoforms are visualised.

[2] = target: Helix Pomatia lectin (HPA) (Helix pomatia, UniProt Q2F1K8); assay: Direct binding ELISA, competitive inhibition, Helix Pomatia lectin control; conditions: read-out: Concentration required for 50% inhibition (IC50), HPA; control plant lectin
From the text: Glycopeptides were purified by C-18 reverse phase HPLC. Peptides were custom synthesized by Neosystems (Strasbourg). Biotinylated Helix Pomatia lectin (HPA) was from KemEnTec (Denmark). Anti-MUC1 HMFG2 monoclonal antibody was a generous gift from Joyce Taylor-Papadimitriou. Anti-MUC1 SE5 monoclonal antibody was developed by immunizing Balb/c mice with 60-mer MUC1 tandem repeat peptide glycosylated with 5 moles GalNAc per repeat. Monoclonal antibodies to the lectin domains of human GalNAc-T2 and -T4 were developed as previously described^8, 63.
Direct binding ELISA assay was developed as follows: Polystyrene microtiter plates (Maxisorb, Nunc, Denmark) were coated with peptides or enzymatically glycosylated glycopeptides in PBS overnight at 4° C. Plates were washed and blocked with 0.1% Tween20 and 0.2% BSA in PBS for 1 h at room temperature, followed by incubation with biotinylated proteins in PBS with 0.05% Tween20 for 2 h at room temperature. After four washes with PBS, plates were incubated with 1:2,000 dilution streptavidin-HRP (Sigma) in PBS for 30 min at room temperature and washed four times with PBS. Development was performed with 0.5 mg/ml o-phenylenediamine and 0.02% H2O2 at room temperature for 15 min, and reaction stopped by adding 100 μl/well of 0.5 N H2SO4. Competitive inhibition assays were done at end-point titers of GalNAc-transferase proteins with one hour preincubations with inhibitor.
Inhibition experiments were used to further define the binding specificity of GalNAc-T2 and -T4 secreted soluble enzymes as well as lectin domains compared to Helix Pomatia lectin (Table VII).

[3] = test system: CHOldlD/MUC1F-clone2 cells; assay: Cell surface expression of MUC1 by immunocytology; assay type: cell-based, Chinese Hamster; conditions: 1 mM; cells grown in GalNAc; FIG. 13
Protocol: We therefore investigated the effect of treatment with GalNAcα-benzyl of CHOldlD/MUC1F-clone2 cells grown in the presence of GalNAc. CHOldlD/MUC1F-clone2 cells were seeded in 6 well plates at a density of 0.2×10^6 per well and were grown for 6 hours in Hams F12 medium with serum until approximately 30% subconfluent. […] After 18 hours, the medium was replaced with fresh Optimem containing the sugars and benzyl derivatives as above and grown for 12-48 hours. Initially we analyzed surface expression of MUC1 by immunocytology. Cells were washed once in PBS-CMF (phosphate buffered saline Calcium and Magnesium free) after carefully removing the medium from the wells and subsequently fixed in 2 ml 3% paraformaldehyde at 25° C. for 20 min followed by three washes with PBS-CMF 3 times. Free aldehyde groups were quenched by incubating in 2 mL 50 mM Ammonium Chloride in PBS-CMF for 10 min, followed by three washes with PBS-CMF and three washes with 5 min incubations each with PBS-CMF containing 0.2% Fish Skin Gelatin (Sigma). Immunostaining of cells was performed by incubation with monoclonal antibodies for 40 min at 25° C., followed by three washes with PBS-CMF and three washes of 5 min each with PBS-CMF containing 0.2% Fish Skin Gelatin. […]

[4] = 48 hours, IP HMFG2, blot HMFG2, grown in GalNAc or Gal and GalNAc

| SMILES | MUC1 expression ([1]; 24 hours, IP HMFG2, blot HMFG2) | MUC1 expression ([1]; 36 hours, blot 5E5, cells grown in GalNAc) | MUC1 expression [1, 4] | SDS-PAGE migration of MUC1 (O-glycosylation) ([1]; 48 hours, cells grown in Gal and GalNAc, blot HMFG2) | IC50 [2] | Cell surface expression of MUC1 [3] |
| --- | --- | --- | --- | --- | --- | --- |
| CC(=O)N[C@H]1[C@@H](OCc2ccccc2)O[C@H](CO)[C@H](O)[C@@H]1O [GalNAcα-benzyl] | no significant effect | strong inhibition | significant reduction in MUC1 expression | significant shift in migration | 0.5 mM | strong inhibition |
| CC(=O)N[C@H]1[C@@H](OCc2ccccc2)O[C@H](CO)[C@@H](O)[C@@H]1O [GlcNAcα-benzyl] |  |  | produced the same glycoforms at similar intensity as cells without treatment; also recorded: no effect |  | 2 mM | no inhibition |
